Assay results reported in patent US11136321B2, “Tricyclic compounds” (ALIGOS THERAPEUTICS, INC., priority 2019, dated 2021).

system: HBV; test: HBV-DNA antiviral assay using HepG2.117 cells; assay type: cell-based, genotype D HBV; details: Hepatitis B virus, 72 h, intracellular HBV DNA by qPCR, 3 days incubation
Method in brief: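 HepG2.117 cells (genotype D HBV, Tet-off) seeded without doxycycline and treated for 3 days at 9 concentrations (4-fold dilutions) in 2% DMSO. Intracellular HBV DNA measured by qPCR against a standard curve, with viability from ATPlite run in parallel. EC50, EC90 and CC50 fitted relative to DMSO controls.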

Q: `NC(=O)c1ccc(-n2c(=O)c3c(n4ncc(NCc5ccccc5)c24)CN(C(=O)c2ccc(Br)c(Cl)c2)CC3)cc1` [Compound 49, 4-[5-(benzylamino)-12-(4-bromo-3-chloro-benzoyl)-8-oxo-2,3,7,12-tetrazatricyclo [7.4.0.0 2,6]trideca-1(9),3,5-trien-7-yl] benzamide] was tested. Which EC50 did it give?
A: ≤ 0.1 µM

Q: `NC(=O)c1ccc(-n2c(=O)c3c(n4ncc(NCc5ccccc5)c24)CN(C(=O)c2ccc(Cl)c(Cl)c2)CC3)cc1` [Compound 50, 4-[5-(benzylamino)-12-(3,4-dichlorobenzoyl)-8-oxo-2,3,7,12-tetrazatricyclo [7.4.0.0 2,6]trideca-1(9),3,5-trien-7-yl] benzamide] was tested. Which EC50 did it give?
A: ≤ 0.1 µM

Q: With `CNC(=O)c1ccc(-n2c(=O)c3c(n4ncc(NCc5ccc(C#N)cc5)c24)CN(C(=O)c2ccc(Cl)c(Cl)c2)CC3)cc1` [Compound 51, 4-[5-[(4-cyanophenyl)methylamino]-12-(3,4-dichlorobenzoyl)-8-oxo-2,3,7,12-tetrazatricyclo [7.4.0.0 2,6]trideca-1(9),3,5-trien-7-yl]-N-methyl-benzamide] as the molecule, how does the EC50 read?
A: 0.5 to 5 µM

Q: `CNC(=O)c1ccc(-n2c(=O)c3c(n4ncc(NCc5ccc(OCC(N)=O)cc5)c24)CN(C(=O)c2ccc(Br)c(Cl)c2)CC3)cc1` [Compound 52, 4-[5-[[4-(2-amino-2-oxo-ethoxy)phenyl]methylamino]-12-(4-bromo-3-chloro-benzoyl)-8-oxo-2,3,7,12-tetrazatricyclo [7.4.0.0 2,6]trideca-1(9),3,5-trien-7-yl]-N-methyl-benzamide] was tested. Which EC50 did it give?
A: 0.1 to 0.5 µM

Q: How did the EC50 turn out when `CNC(=O)c1ccc(-n2c(=O)c3c(n4ncc(NCc5ccc(OCC(N)=O)cc5)c24)CN(C(=O)c2ccc(Cl)c(Cl)c2)CC3)cc1` [Compound 53, 4-[5-[[4-(2-amino-2-oxo-ethoxy)phenyl]methylamino]-12-(3,4-dichlorobenzoyl)-8-oxo-2,3,7,12-tetrazatricyclo [7.4.0.0 2,6]trideca-1(9),3,5-trien-7-yl]-N-methyl-benzamide] was run?
A: 0.5 to 5 µM

Q: With `CNC(=O)c1ccc(-n2c(=O)c3c(n4ncc(Nc5ccc(F)cc5)c24)CN(C(=O)c2ccc(Br)c(Cl)c2)CC3)cc1` [Compound 54, 4-[12-(4-bromo-3-chloro-benzoyl)-5-(4-fluoroanilino)-8-oxo-2,3,7,12-tetrazatricyclo [7.4.0.0 2,6]trideca-1(9),3,5-trien-7-yl]-N-methyl-benzamide] as the molecule, how does the EC50 read?
A: ≤ 0.1 µM

Q: How did the EC50 turn out when `CNC(=O)c1ccc(-n2c(=O)c3c(n4ncc(NCc5ccc(C#N)cc5)c24)CN(C(=O)c2ccc(Br)c(Cl)c2)CC3)cc1` [Compound 55, 4-[12-(4-bromo-3-chloro-benzoyl)-5-[(4-cyanophenyl)methylamino]-8-oxo-2,3,7,12-tetrazatricyclo [7.4.0.0 2,6]trideca-1(9),3,5-trien-7-yl]-N-methyl-benzamide] was run?
A: 0.1 to 0.5 µM

Q: For `CNC(=O)c1ccc(-n2c(=O)c3c(n4ncc(Cc5ccccc5)c24)CN(C(=O)c2ccc(Br)cn2)CC3)cc1` [Compound 56, 4-[5-benzyl-12-(5-bromopyridine-2-carbonyl)-8-oxo-2,3,7,12-tetrazatricyclo [7.4.0.0 2,6]trideca-1(9),3,5-trien-7-yl]-N-methyl-benzamide], which EC50 is on record?
A: 0.5 to 5 µM

Q: With `CNC(=O)c1ccc(-n2c(=O)c3c(n4ncc(Cc5ccc(F)cc5)c24)CN(C(=O)c2ccc(Br)c(Cl)c2)CC3)cc1` [Compound 59, 4-[12-(4-bromo-3-chloro-benzoyl)-5-[(4-fluorophenyl)methyl]-8-oxo-2,3,7,12-tetrazatricyclo [7.4.0.0 2,6]trideca-1(9),3,5-trien-7-yl]-N-methyl-benzamide] as the molecule, how does the EC50 read?
A: ≤ 0.1 µM

Q: `CNC(=O)c1ccc(-n2c(=O)c3c(n4ncc(Cc5ccc(F)cc5)c24)CN(C(=O)c2ccc(Br)c(C#N)c2)CC3)cc1` [Compound 60, 4-[12-(4-bromo-3-cyano-benzoyl)-5-[(4-fluorophenyl)methyl]-8-oxo-2,3,7,12-tetrazatricyclo [7.4.0.0 2,6]trideca-1(9),3,5-trien-7-yl]-N-methyl-benzamide] was tested. Which EC50 did it give?
A: ≤ 0.1 µM

Q: With `CCNC(=O)c1ccc(-n2c(=O)c3c(n4ncc(Cc5ccccc5)c24)CN(C(=O)c2ccc(Br)c(Cl)c2)CC3)cc1` [Compound 61, 4-[5-benzyl-12-(4-bromo-3-chloro-benzoyl)-8-oxo-2,3,7,12-tetrazatricyclo [7.4.0.0 2,6]trideca-1(9),3,5-trien-7-yl]-N-ethyl-benzamide] as the molecule, how does the EC50 read?
A: 0.5 to 5 µM

Q: For `CCNC(=O)c1ccc(-n2c(=O)c3c(n4ncc(Cc5ccccc5)c24)CN(C(=O)c2ccc(Br)c(C#N)c2)CC3)cc1` [Compound 62, 4-[5-benzyl-12-(4-bromo-3-cyano-benzoyl)-8-oxo-2,3,7,12-tetrazatricyclo [7.4.0.0 2,6]trideca-1(9),3,5-trien-7-yl]-N-ethyl-benzamide], which EC50 is on record?
A: 0.5 to 5 µM

Q: With `CNC(=O)c1ccc(-n2c(=O)c3c(n4ncc(Nc5ccc(F)cc5)c24)CN(C(=O)c2ccc(Br)c(C#N)c2)CC3)cc1` [Compound 63, 4-[12-(4-bromo-3-cyano-benzoyl)-5-(4-fluoroanilino)-8-oxo-2,3,7,12-tetrazatricyclo [7.4.0.0 2,6]trideca-1(9),3,5-trien-7-yl]-N-methyl-benzamide] as the molecule, how does the EC50 read?
A: 0.1 to 0.5 µM

Q: How did the EC50 turn out when `CC(C)NC(=O)c1ccc(-n2c(=O)c3c(n4ncc(Cc5ccccc5)c24)CN(C(=O)c2ccc(Br)c(Cl)c2)CC3)cc1` [Compound 64, 4-[5-benzyl-12-(4-bromo-3-chloro-benzoyl)-8-oxo-2,3,7,12-tetrazatricyclo [7.4.0.0 2,6]trideca-1(9),3,5-trien-7-yl]-N-isopropyl-benzamide] was run?
A: 0.5 to 5 µM

Q: For `CC(C)NC(=O)c1ccc(-n2c(=O)c3c(n4ncc(Cc5ccccc5)c24)CN(C(=O)c2ccc(Br)c(C#N)c2)CC3)cc1` [Compound 65, 4-[5-benzyl-12-(4-bromo-3-cyano-benzoyl)-8-oxo-2,3,7,12-tetrazatricyclo [7.4.0.0 2,6]trideca-1(9),3,5-trien-7-yl]-N-isopropyl-benzamide], which EC50 is on record?
A: 0.5 to 5 µM

Q: Which EC50 does the source give for `CNC(=O)c1ccc(-n2c(=O)c3c(n4ncc(NCc5ccccc5F)c24)CN(C(=O)c2ccc(Br)c(Cl)c2)CC3)cc1` [Compound 66, 4-[12-(4-bromo-3-chloro-benzoyl)-5-[(2-fluorophenyl)methylamino]-8-oxo-2,3,7,12-tetrazatricyclo [7.4.0.0 2,6]trideca-1(9),3,5-trien-7-yl]-N-methyl-benzamide] here?
A: ≤ 0.1 µM

Q: Which EC50 does the source give for `CNC(=O)c1ccc(-n2c(=O)c3c(n4ncc(NCc5ccc(F)cc5)c24)CN(C(=O)c2ccc(Br)c(Cl)c2)CC3)cc1` [Compound 67, 4-[12-(4-bromo-3-chloro-benzoyl)-5-[(4-fluorophenyl)methylamino]-8-oxo-2,3,7,12-tetrazatricyclo [7.4.0.0 2,6]trideca-1(9),3,5-trien-7-yl]-N-methyl-benzamide] here?
A: ≤ 0.1 µM

Q: For `O=C(NC1CC1)c1ccc(-n2c(=O)c3c(n4ncc(Cc5ccccc5)c24)CN(C(=O)c2ccc(Br)c(Cl)c2)CC3)cc1` [Compound 68, 4-[5-benzyl-12-(4-bromo-3-chloro-benzoyl)-8-oxo-2,3,7,12-tetrazatricyclo [7.4.0.0 2,6]trideca-1(9),3,5-trien-7-yl]-N-cyclopropyl-benzamide], which EC50 is on record?
A: > 5 µM

Q: `CNC(=O)c1ccc(-n2c(=O)c3c(n4ncc(NCc5ccccc5F)c24)CN(C(=O)c2ccc(Br)c(C#N)c2)CC3)cc1` [Compound 69, 4-[12-(4-bromo-3-cyano-benzoyl)-5-[(2-fluorophenyl)methylamino]-8-oxo-2,3,7,12-tetrazatricyclo [7.4.0.0 2,6]trideca-1(9),3,5-trien-7-yl]-N-methyl-benzamide] was tested. Which EC50 did it give?
A: 0.1 to 0.5 µM

Q: How did the EC50 turn out when `CNC(=O)c1ccc(-n2c(=O)c3c(n4ncc(NCc5ccc(F)cc5)c24)CN(C(=O)c2ccc(Br)c(C#N)c2)CC3)cc1` [Compound 70, 4-[12-(4-bromo-3-cyano-benzoyl)-5-[(4-fluorophenyl)methylamino]-8-oxo-2,3,7,12-tetrazatricyclo [7.4.0.0 2,6]trideca-1(9),3,5-trien-7-yl]-N-methyl-benzamide] was run?
A: 0.1 to 0.5 µM

Q: `N#Cc1cc(C(=O)N2CCc3c(n4ncc(Cc5ccccc5)c4n(-c4ccc(-c5ncc[nH]5)cc4)c3=O)C2)ccc1Br` [Compound 73, 5-[5-benzyl-7-[4-(1H-imidazol-2-yl)phenyl]-8-oxo-2,3,7,12-tetrazatricyclo [7.4.0.0 2,6]trideca-1(9),3,5-triene-12-carbonyl]-2-bromo-benzonitrile] was tested. Which EC50 did it give?
A: 0.5 to 5 µM

Q: With `NC(=O)c1ccc(-n2c(=O)c3c(n4ncc(Cc5ccccc5)c24)CN(C(=O)c2ccc(Br)c(Cl)c2)CC3)cc1` [Compound 75, 4-[5-benzyl-12-(4-bromo-3-chloro-benzoyl)-8-oxo-2,3,7,12-tetrazatricyclo [7.4.0.0 2,6]trideca-1(9),3,5-trien-7-yl] benzamide] as the molecule, how does the EC50 read?
A: 0.5 to 5 µM

Q: `N#Cc1cc(C(=O)N2CCc3c(n4ncc(Cc5ccccc5)c4n(-c4ccc(C(=O)NC5CC5)cc4)c3=O)C2)ccc1Br` [Compound 76, 4-[5-benzyl-12-(4-bromo-3-cyano-benzoyl)-8-oxo-2,3,7,12-tetrazatricyclo [7.4.0.0 2,6]trideca-1(9),3,5-trien-7-yl]-N-cyclopropyl-benzamide] was tested. Which EC50 did it give?
A: > 5 µM

Q: `O=C(c1ccc(Br)c(Cl)c1)N1CCc2c(n3ncc(Cc4ccccc4)c3n(-c3ccc(-n4cccn4)cc3)c2=O)C1` [Compound 77, 5-benzyl-12-(4-bromo-3-chloro-benzoyl)-7-(4-pyrazol-1-ylphenyl)-2,3,7,12-tetrazatricyclo [7.4.0.0 2,6] trideca-1(9),3,5-trien-8-one] was tested. Which EC50 did it give?
A: > 5 µM

Q: For `N#Cc1cc(C(=O)N2CCc3c(n4ncc(Cc5ccccc5)c4n(-c4ccc(-n5cccn5)cc4)c3=O)C2)ccc1Br` [Compound 78, 5-[5-benzyl-8-oxo-7-(4-pyrazol-1-ylphenyl)-2,3,7,12-tetrazatricyclo [7.4.0.0 2,6]trideca-1(9),3,5-triene-12-carbonyl]-2-bromo-benzonitrile], which EC50 is on record?
A: > 5 µM

Q: How did the EC50 turn out when `N#Cc1cc(C(=O)N2CCc3c(n4ncc(Cc5ccccc5)c4n(-c4ccc(C(N)=O)cc4)c3=O)C2)ccc1Br` [Compound 82, 4-[5-benzyl-12-(4-bromo-3-cyano-benzoyl)-8-oxo-2,3,7,12-tetrazatricyclo [7.4.0.0 2,6]trideca-1(9),3,5-trien-7-yl] benzamide] was run?
A: > 5 µM
